Target: T1, NK3 tachykinin receptor (Homo sapiens, UniProt P29371)
T1 sequence (P29371 1-465): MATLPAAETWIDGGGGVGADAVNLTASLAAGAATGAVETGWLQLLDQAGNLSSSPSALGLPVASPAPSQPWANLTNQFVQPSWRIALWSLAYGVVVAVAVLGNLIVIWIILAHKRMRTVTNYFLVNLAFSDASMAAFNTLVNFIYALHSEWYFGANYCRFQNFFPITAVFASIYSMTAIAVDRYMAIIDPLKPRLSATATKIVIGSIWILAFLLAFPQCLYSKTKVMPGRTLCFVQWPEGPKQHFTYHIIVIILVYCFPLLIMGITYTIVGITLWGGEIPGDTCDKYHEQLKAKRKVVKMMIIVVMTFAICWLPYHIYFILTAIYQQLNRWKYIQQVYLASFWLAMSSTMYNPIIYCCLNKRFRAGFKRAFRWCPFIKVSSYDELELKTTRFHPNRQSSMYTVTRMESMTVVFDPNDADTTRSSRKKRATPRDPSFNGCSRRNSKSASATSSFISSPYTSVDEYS
Experiment: not given
Details: phase II trial; negative symptoms (depression, anhedonia, social isolation, memory and attention deficits); cited from earlier work
In the case of `CC(=O)N(C)C1(c2ccccc2)CCN(CCC[C@]2(c3ccc(Cl)c(Cl)c3)CCCN(C(=O)c3ccccc3)C2)CC1` [SR 142,801, Osanetant], the “activity in treatment of negative symptoms of schizophrenia” value is listed as “inactive”.

Same assay, conditions: phase II trial; positive symptoms (altered behavior, delusion, hallucinations, extreme emotions, excited motor activity, incoherent speech); cited from earlier work
For `CC(=O)N(C)C1(c2ccccc2)CCN(CCC[C@]2(c3ccc(Cl)c(Cl)c3)CCCN(C(=O)c3ccccc3)C2)CC1` [SR 142,801, Osanetant], the “activity on positive symptoms of schizophrenia” value is listed as “active”.

Target: T2, recombinant human NK3 receptor (Homo sapiens, UniProt P29371)
T2 construct: expressed in transfected cells; host or cells: HEK293 cells, transient expression; membranes
T2 sequence (P29371 1-465): T1 sequence (P29371 1-465)
Experiment: [3H]SR142801 competition binding assay
Details: membranes from HEK293 cells transiently expressing recombinant human NK3 receptor; [3H]SR142801 radioligand; read-out: Data Ki (hNK-3 receptor affinity)
Procedure: [^3H]SR142801 Competition Binding Assay
hNK3 receptor binding experiment were performed using [^3H]SR142801 (Catalog No. TRK1035, specific activity: 74.0 Ci/mmol, Amersham, G E Healthcare UK limited, Buckinghamshire, UK) and membrane isolated from HEK293 cells transiently expressing recombinant human NK3 receptor. After thawing, the membrane homogenates were centrifuged at 48,000×g for 10 min at 4° C., the pellets were resuspended in the 50 mM Tris-HCl, 4 mM MnCl2, 1 μM phosphoramidon, 0.1% BSA binding buffer at pH 7.4 to a final assay concentration of 5 μg protein/well. For inhibition experiments, membranes were incubated with [^3H]SR142801 at a concentration equal to KD value of radioligand and 10 concentrations of the inhibitory compound (0.0003-10 μM) (in a total reaction volume of 500 μl) for 75 min at room temperature (RT). At the end of the incubation, membranes were filtered onto unitfilter (96-well white microplate with bonded GF/C filter preincubated 1 h in 0.3% PEI+0.3% BSA, Packard BioScience, Meriden, Conn.) with a Filtermate 196 harvester (Packard BioScience) and washed 4 times with ice-cold 50 mM Tris-HCl, pH 7.4 buffer. Nonspecific binding was measured in the presence of 10 μM SB222200 for both radioligands. The radioactivity on the filter was counted (5 min) on a Packard Top-count microplate scintillation counter with quenching correction after addition of 45 μl of microscint 40 (Can berra Packard S. A., Zürich, Switzerland) and shaking for 1 h. Inhibition curves were fitted according to the Hill equation: y=100/(1+(x/IC50)^nH), where nH=slope factor using Excel-fit 4 software (Microsoft). IC50 values were derived from the inhibition curve and the affinity constant (Ki) values were calculated using the Cheng-Prussoff equation Ki=IC50/(1+[L]/KD) where [L] is the concentration of radioligand and KD is its dissociation constant at the receptor, derived from the saturation isotherm. All experiments were performed in duplicate and the mean±standard error (SEM) of the individual Ki values was calculated.
Compound `N#Cc1ccccc1N1CCN(C(=O)[C@@H]2C[C@H](n3nnc(-c4ccc(F)cc4F)n3)CN2Cc2ccccc2)CC1` [Example 1, 2-(4-{(2S,4S)-1-Benzyl-4-[5-(2,4-difluoro-phenyl)-tetrazol-2-yl]-pyrrolidine-2-carbonyl}-piperazin-1-yl)-benzonitrile] has a Ki of 84 nM. Compound `N#Cc1ccccc1N1CCN(C(=O)[C@@H]2C[C@H](n3nnc(-c4ccc(F)cc4F)n3)CN2Cc2ccccc2F)CC1` [Example 2, 2-{4-[(2S,4S)-4-[5-(2,4-Difluoro-phenyl)-tetrazol-2-yl]-1-(2-fluoro-benzyl)-pyrrolidine-2-carbonyl]-piperazin-1-yl}-benzonitrile] has a Ki of 23 nM. Work on `N#Cc1ccccc1N1CCN(C(=O)[C@@H]2C[C@H](n3nnc(-c4ccc(F)cc4F)n3)CN2Cc2cccc(F)c2)CC1` [Example 3, 2-{4-[(2S,4S)-4-[5-(2,4-Difluoro-phenyl)-tetrazol-2-yl]-1-(3-fluoro-benzyl)-pyrrolidine-2-carbonyl]-piperazin-1-yl}-benzonitrile] yielded a Ki of 320 nM. Work on `N#Cc1ccccc1N1CCN(C(=O)[C@@H]2C[C@H](n3nnc(-c4ccc(F)cc4F)n3)CN2Cc2ccc(F)cc2)CC1` [Example 4, 2-{4-[(2S,4S)-4-[5-(2,4-Difluoro-phenyl)-tetrazol-2-yl]-1-(4-fluoro-benzyl)-pyrrolidine-2-carbonyl]-piperazin-1-yl}-benzonitrile] yielded a Ki of 965 nM. Work on `N#Cc1ccccc1N1CCN(C(=O)[C@@H]2C[C@H](n3nnc(-c4ccc(F)cc4F)n3)CN2Cc2ccccc2Cl)CC1` [Example 5, 2-(4-{(2S,4S)-1-(2-Chloro-benzyl)-4-[5-(2,4-difluoro-phenyl)-tetrazol-2-yl]-pyrrolidine-2-carbonyl}-piperazin-1-yl)-benzonitrile] yielded a Ki of 280 nM. `N#Cc1ccccc1N1CCN(C(=O)[C@@H]2C[C@H](n3nnc(-c4ccc(F)cc4F)n3)CN2Cc2cccc(Cl)c2)CC1` [Example 6, 2-(4-{(2S,4S)-1-(3-Chloro-benzyl)-4-[5-(2,4-difluoro-phenyl)-tetrazol-2-yl]-pyrrolidine-2-carbonyl}-piperazin-1-yl)-benzonitrile] gave a Ki of 295 nM. For `N#Cc1ccccc1N1CCN(C(=O)[C@@H]2C[C@H](n3nnc(-c4ccc(F)cc4F)n3)CN2Cc2ccc(Cl)cc2)CC1` [Example 7, 2-(4-{(2S,4S)-1-(4-Chloro-benzyl)-4-[5-(2,4-difluoro-phenyl)-tetrazol-2-yl]-pyrrolidine-2-carbonyl}-piperazin-1-yl)-benzonitrile], the Ki was 208 nM. With `N#Cc1ccccc1N1CCN(C(=O)[C@@H]2C[C@H](n3nnc(-c4ccc(F)cc4F)n3)CN2CC2CCCCC2)CC1` [Example 8, 2-(4-{(2S,4S)-1-Cyclohexylmethyl-4-[5-(2,4-difluoro-phenyl)-tetrazol-2-yl]-pyrrolidine-2-carbonyl}-piperazin-1-yl)-benzonitrile] the Ki was 696 nM. In the case of `N#Cc1ccccc1N1CCN(C(=O)[C@@H]2C[C@H](n3nnc(-c4ccc(F)cc4F)n3)CN2Cc2ccc(F)c(F)c2)CC1` [Example 9, 2-(4-{(2S,4S)-1-(3,4-Difluoro-benzyl)-4-[5-(2,4-difluoro-phenyl)-tetrazol-2-yl]-pyrrolidine-2-carbonyl}-piperazin-1-yl)-benzonitrile], the Ki is reported as 387 nM.

Source: patent US7501422B2, “Prolinamide-tetrazole derivatives as NK3 receptor antagonists” (Hoffmann-La Roche Inc., priority 2007, dated 2009)
